The values that follow come from ChEMBL document CHEMBL5727404, “Toll-like receptor 7 (TLR7) agonists having a heterobiaryl moiety, conjugates thereof, and methods and uses therefor” (2019).

The target in the assay is T1, Toll-like receptor 7 (Homo sapiens, UniProt Q9NYK1).
T1 sequence (Q9NYK1 whole entry): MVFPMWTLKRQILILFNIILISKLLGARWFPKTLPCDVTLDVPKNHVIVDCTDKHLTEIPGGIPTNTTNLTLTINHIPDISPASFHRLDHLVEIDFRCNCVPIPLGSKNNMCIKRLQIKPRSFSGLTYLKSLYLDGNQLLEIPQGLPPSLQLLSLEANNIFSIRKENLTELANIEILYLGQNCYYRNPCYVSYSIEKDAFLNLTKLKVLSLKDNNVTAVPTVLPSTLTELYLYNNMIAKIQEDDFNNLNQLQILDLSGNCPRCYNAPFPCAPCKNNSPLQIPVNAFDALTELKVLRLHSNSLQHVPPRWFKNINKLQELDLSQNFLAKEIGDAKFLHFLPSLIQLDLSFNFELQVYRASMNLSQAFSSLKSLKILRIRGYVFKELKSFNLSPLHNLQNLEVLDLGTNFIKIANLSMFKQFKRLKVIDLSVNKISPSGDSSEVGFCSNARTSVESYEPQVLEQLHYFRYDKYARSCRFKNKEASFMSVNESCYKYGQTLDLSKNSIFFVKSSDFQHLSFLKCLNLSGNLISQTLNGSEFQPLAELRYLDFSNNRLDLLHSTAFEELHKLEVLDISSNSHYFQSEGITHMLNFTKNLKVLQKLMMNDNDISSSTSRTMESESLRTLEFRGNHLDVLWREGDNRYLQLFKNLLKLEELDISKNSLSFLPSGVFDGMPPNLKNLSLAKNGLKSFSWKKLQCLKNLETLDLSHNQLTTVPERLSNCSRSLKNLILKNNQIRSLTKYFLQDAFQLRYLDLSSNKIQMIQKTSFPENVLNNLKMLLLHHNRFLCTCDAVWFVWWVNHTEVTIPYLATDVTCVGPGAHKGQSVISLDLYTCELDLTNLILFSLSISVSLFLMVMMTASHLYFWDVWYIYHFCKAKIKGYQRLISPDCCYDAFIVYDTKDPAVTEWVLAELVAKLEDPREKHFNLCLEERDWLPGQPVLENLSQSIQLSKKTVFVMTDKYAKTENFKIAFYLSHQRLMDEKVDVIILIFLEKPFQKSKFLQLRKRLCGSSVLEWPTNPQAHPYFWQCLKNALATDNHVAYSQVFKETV
Put plainly: HEK-Blue™ TLR7 cells were added to each well of a 384-well tissue-culture plate (15,000 cells per well) and incubated 16-18 h at 37° C., 5% CO2. Compounds (100 nl) were dispensed into wells containing the HEK-Blue™ TLR cells and the treated cells were incubated at 37° C., 5% CO2. After 18 h treatment ten microliters of freshly-prepared Quanti-Blue reagent (Invivogen) was added to each well, incubated for 30 min (37° C., 5% CO2) and SEAP levels measured using an Envision plate reader (OD=620 nm).

The term EC50 denotes the concentration at which the effect is half-maximal. Low readings indicate greater potency, high ones weaker potency. In turn, `CCCCOc1nc(N)c2nc(O)n(Cc3ccc(-c4csc(CN)c4)nc3)c2n1` came in with an EC50 of 52 nM.
On to `CCCCOc1nc(N)c2nc(O)n(Cc3ccc(-c4csc(CN)c4)cc3)c2n1`, for which it took 59 nM to reach a half-maximal effect (EC50).
